From article PMC8318231, “Rate-of-Kill (RoK) assays to triage large compound sets for Chagas disease drug discovery: Application to GSK Chagas Box” (PLoS Neglected Tropical Diseases, 2021)

Test system: T. cruzi intracellular amastigotes in H9c2 cells
Assay: Rate-of-Kill (RoK) high-content imaging assay, amastigotes per cell (AM/CELL) and curve descriptors
Type: cell-based, Trypanosoma cruzi
Design: key to ME_24h / ME_48h / ME_72h: % reduction in parasite burden (cidal response); t50pct_MCC50 / t50pct_Cmax: unit not given here
Conditions: for ME_24h: 24h; for ME_48h: 48h; for ME_72h: 72h; for tlag_Cmax / t50pct_Cmax / t50%_Cmax: at Cmax; for ME_24h (%): maximum effect at 24 h; for ME_24h (%) / ME_48h (%) / ME_72h (%): RoK assay; for ME_48h (%): maximum effect at 48 h; for ME_72h (%): maximum effect at 72 h; for ME 24h (maximum effect at 24 hours, intracellular amastigotes): maximum percentage of parasite burden reduction reached by any concentration
Outline: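 Readouts at each time point are amastigotes per cell and host nuclei count (cytotoxicity), from DRAQ5 high-content imaging. Infection: trypomastigotes on H9c2 at MOI 8 for 18 h. Dosing was 5 μM single point or 11 points, 1/3 steps from 50 μM. Effect scaled between 4 h infected and uninfected controls.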

Row | SMILES | ME_24h (figure 5) | ME_48h (figure 5) | ME_72h (figure 5) | MCC50 (RoK curve descriptor) | MCCE (RoK curve descriptor) | AM/CELL NORM (Time 4, sheet figure 4 A) | AM/CELL NORM (Time 24, sheet figure 4 A) | AM/CELL NORM (Time 48, sheet figure 4 A) | AM/CELL NORM (Time 72, sheet figure 4 A) | tlag_Cmax | t50pct_Cmax (figure 5) | tlag_Cmax (figure 5) | t50%_MCC50 (at MCC50) | t50pct_MCC50 (at MCC50, figure 5) | tlag_MCC50 (at MCC50, figure 5) | MCCE (figure 5) | ME_24h (%) | ME_48h (%) | ME_72h (%) | ME 24h (maximum effect at 24 hours, intracellular amastigotes) | further results
1 | CC(=O)Nc1nc(-c2cc(C)ccc2C)c(C)s1 [TCMDC-143207] | 9.377 | 15.7339 | 56.2605 | 5.6 µM | 0.2 µM | -2.089 | 9.377 | 6.875 | 36.4934 | 4.0 h | 72 | 4 | 72.0 h | 72 | 4 | 0.2058 | 9.4% | 15.7% | 56.3% | 9.377% | tlag_MCC50 (at MCC50): 4.0 h; MCC50 (figure 5, in µM): 5.556
2 | Cn1nccc1-c1cc(OC(CN)c2ccccc2)cnc1-c1ccco1.O=C(O)C(F)(F)F.O=C(O)C(F)(F)F (centres unmarked) [TCMDC-143221] | -243.084 | -97.9255 | 30.5438 |  | 1.9 µM | 21.0268 | -310.615 | -207.349 | 0.471 | 24.0 h | 72 | 24 |  | 72 | 72 | 1.852 | -243.1% | -97.9% | 30.5% | -243.084% | MCC50 (figure 5): 50 µM
3 | CS(=O)(=O)c1ccc(CC(=O)Nc2nc(-c3ccc(Cl)s3)cs2)cc1 [TCMDC-143224] | -50.7576 | -167.826 | 53.6478 | 16.7 µM | 1.9 µM | -3.952 | -61.4068 | -205.24 | -9.589 | 48.0 h | 72 | 48 | 72.0 h | 72 | 48 | 1.852 | -50.8% | -167.8% | 53.7% | -50.7576% | tlag_MCC50 (at MCC50): 48.0 h; MCC50 (figure 5, in µM): 16.6667
4 | CCN(C)Cc1ccc(N2CCC(NS(=O)(=O)c3ccc4c(c3)CCO4)CC2)nc1 [TCMDC-143244] | -27.3777 | 29.749 | 55.3707 | 5.6 µM | 5.6 µM | 16.0918 |  |  |  | 24.0 h | 72 | 24 | 72.0 h | 72 | 48 | 5.556 | -27.4% | 29.8% | 55.4% | -2.6188% | AM/CELL NORM (Time 24, figure 4 A): -52.1365; AM/CELL NORM (Time 48, figure 4 A): 10.0549; AM/CELL NORM (Time 72, figure 4 A): 24.5494; t50%_Cmax: 72.0 h; tlag_MCC50 (at MCC50): 24.0 h; MCC50 (figure 5, in µM): 27.7778
5 | COc1ccc(S(=O)(=O)NC(C)C)cc1Nc1ncc(-c2cccc(F)c2)cn1 [TCMDC-143248] | -143.559 | -20.0816 | 54.2238 | 50.0 µM | 0.6 µM | -6.932 | -311.598 | -64.9455 | 9.4251 | 24.0 h | 72 | 24 | 72.0 h | 72 | 48 | 0.6173 | -143.6% | -20.1% | 54.2% | -47.9652% | t50%_Cmax: 72.0 h; tlag_MCC50 (at MCC50): 24.0 h; MCC50 (figure 5): 50 µM
6 | O=C(NCCc1ccccc1Cl)c1cccn1-c1cccnc1 [TCMDC-143253] | -106.211 | -219.247 | 24.5352 |  | 0.6 µM | -14.0913 | -106.211 | -401.6 | -120.948 | 48.0 h | 72 | 48 |  | 72 | 72 | 0.6173 | -106.2% | -219.3% | 24.5% | -106.211% | MCC50 (figure 5): 50 µM
7 | COc1ccc(S(=O)(=O)Nc2ccccc2OC)cc1NC(=O)CCCc1c[nH]c2ccccc12 [TCMDC-143256] | -69.6887 | 10.9628 | 75.3535 | 5.6 µM | 1.9 µM | 3.221 | -34.0663 | 12.7734 | 63.1728 | 24.0 h | 72 | 24 | 72.0 h | 72 | 24 | 1.852 | -69.7% | 11.0% | 75.4% | -34.0663% | t50%_Cmax: 72.0 h; tlag_MCC50 (at MCC50): 24.0 h; MCC50 (figure 5, in µM): 5.556
8 | COc1ccc2c(Cl)c(C(=O)N3CCC3)sc2c1Cl [TCMDC-143262] | -33.6637 | -143.465 | -114.282 |  | 16.7 µM | 16.6129 | -33.6637 | -143.465 | -114.282 | 48.0 h | 72 | 48 |  | 72 | 72 | 16.6667 | -33.7% | -143.5% | -114.3% | -33.6637% | MCC50 (figure 5): 50 µM
